Calls of active or inactive are those of the source. No cut-off for these calls is given here.
Key:
KMM-1 [1] = test: (§1) Growth inhibition of human KMM-1 cells at 10 uM after 48 hrs by PrestoBlue cell viability assay relative to control; format: functional
JJN-3 [2] = test: Growth inhibition of human JJN-3 cells after 48 hrs by PrestoBlue cell viability assay; format: functional, cell-based; conditions: JJN-3, 48 h
MM.1R [3] = test: Down regulation of IKZF1 protein expression in human MM1.R cells at 5 to 10 uM after 48 hrs by immunoblotting analysis; format: functional, cell-based; conditions: dose 5-10 µM
JJN-3 [4] = test: Down regulation of IKZF1 protein expression in human JJN-3 cells at 10 to 100 uM after 48 hrs in presence of TMP by immunoblotting analysis; format: functional, cell-based; conditions: dose 10-100 µM
MM.1R [5] = test: Down regulation of IKZF3 protein expression in human MM1.R cells at 5 to 10 uM after 48 hrs by immunoblotting analysis; format: functional, cell-based; conditions: dose 5-10 µM
JJN-3 [6] = test: Induction of apoptosis in human JJN-3 cells assessed as increase in cleaved caspace-8 protein expression at 10 to 50 uM after 48 hrs by […]; format: functional, cell-based; conditions: dose 10-50 µM
[7] = Growth inhibition of human KMM-1 cells after 48 hrs by PrestoBlue cell viability assay; format: functional, cell-based; conditions: KMM-1, 48 h
MM.1R [8] = test: Down regulation of SP1 protein expression in human MM1.R cells at 10 uM after 48 hrs by immunoblotting analysis; format: functional, cell-based
[9] = as §1; format: functional; conditions: read-out: GI
JJN-3 [10] = test: Down regulation of IRF4 protein expression in human JJN-3 cells at 10 to 100 uM after 48 hrs in presence of TMP by immunoblotting analysis; format: functional, cell-based; conditions: dose 10-100 µM
MM.1R [11] = test: Down regulation of MYC protein expression in human MM1.R cells at 5 to 10 uM after 48 hrs by immunoblotting analysis; format: functional, cell-based; conditions: dose 5-10 µM
[12] = Potency index, ratio of lenalidomide IC50 to test compound IC50 for growth inhibition of human KMM-1 cells; format: functional
[13] = Growth inhibition of human MM1.R cells after 48 hrs by PrestoBlue cell viability assay; format: functional; conditions: MM.1R
JJN-3 [14] = test: Down regulation of SP1 protein expression in human JJN-3 cells at 10 uM after 48 hrs by immunoblotting analysis; format: functional, cell-based
[15] = Induction of apoptosis in human KMM-1 cells assessed as apoptotic cells at 10 uM after 72 hrs by Annexin V/PropidiumIodide staining based flow cytometric analysis relative to control; format: functional
MM.1R [16] = test: Induction of apoptosis in human MM1.R cells at 10 uM after 48 hrs by Annexin V/Propidium Iodide flow cytometric analysis; format: functional, cell-based
MM.1R [17] = test: Induction of apoptosis in human MM1.R cells assessed as increase in cleaved caspace-8 protein expression at 10 uM after 48 hrs by immunoblotting analysis; format: functional, cell-based
[18] = Induction of apoptosis in human MM1.R cells assessed as apoptotic cells at 10 uM after 72 hrs by Annexin V/PropidiumIodide staining based flow cytometric analysis relative to control; format: functional, MM.1R
KMM-1 [19] = test: Growth inhibition of human KMM-1 cells at 1 to 10 uM after 48 hrs by PrestoBlue cell viability assay; format: functional, cell-based; conditions: dose 1-10 µM
KMM-1 [20] = test: Down regulation of cyclin D3 expression in human KMM-1 cells at 5 to 50 uM after 48 hrs by immunoblotting analysis; format: functional, cell-based; conditions: dose 5-50 µM
[21] = Induction of apoptosis in human KMM-1 cells assessed as increase in cleaved caspace-3 expression at 50 uM after 48 hrs by immunoblotting analysis; format: functional
KMM-1 [22] = test: Growth inhibition of human KMM-1 cells at 0.001 to 50 uM after 48 hrs by PrestoBlue cell viability assay; format: functional, cell-based; conditions: dose 0.001-50 µM

## O=C(/C=C/c1ccc(O)cc1O)OCCCc1ccccc1
KMM-1 [1]
  growth inhibition (GI): inactive

## COc1cc(/C=C/C(=O)OCCCc2ccccc2)cc(OC)c1O
KMM-1 [1]
  growth inhibition (GI): inactive

## COc1cc(/C=C/C(=O)OCCc2ccccc2)cc(OC)c1O
KMM-1 [1]
  growth inhibition (GI): inactive

## O=C(/C=C/c1cc(O)ccc1O)OCCCc1ccccc1
JJN-3 [2]
  IC50: 3900 nM
MM.1R [3]
  Activity: Active
JJN-3 [4]
  Activity: Active
MM.1R [5]
  Activity: Active
JJN-3 [6]
  Activity: Active
[7]
  IC50: 1900 nM
MM.1R [8]
  Activity: Active
[9]
  inhibition of growth at 10 µM: 89.7%
JJN-3 [10]
  Activity: Active
MM.1R [11]
  Activity: Active
[12]
  Ratio IC50: 12
[13]
  IC50: 600 nM
JJN-3 [14]
  Activity: Active
[15]
  Activity: 64.5%
MM.1R [16]
  Activity: Active
MM.1R [17]
  Activity: Active
[18]
  Activity: 54%

## O=C(O)/C=C/c1ccc(O)c(O)c1
KMM-1 [19]
  growth inhibition (GI): inactive
KMM-1 [20]
  Activity: inactive

## O=C(/C=C/c1ccc(O)c(O)c1)OCCC1CCCCC1
KMM-1 [19]
  growth inhibition (GI): Active
[21]
  fold change (FC): 3.2

## Nc1cccc2c1C(=O)N(C1CCC(=O)NC1=O)C2=O (configuration not stated) [POMALIDOMIDE]
KMM-1 [22]
  growth inhibition (GI): inactive
[15]
  Activity: 18.4%
[18]
  Activity: 43%

From ChEMBL document CHEMBL4715865, “Antimyeloma Potential of Caffeic Acid Phenethyl Ester and Its Analogues through Sp1 Mediated Downregulation of IKZF1-IRF4-MYC Axis” (J Nat Prod, 2020)
